# Data: patent US20110177161A1, “PHARMACEUTICAL COMPOSITIONS OF [5(S)-(2'-HYDROXYETHOXY)-20(S)-CAMPTOTHECIN” (DR. REDDY'S LABORATORIES LIMITED, priority 2007, published 2011)
# Marks after values point to notes of the source that are not given here.
# Assays:
# in vivo = assay: in vivo; design: species or system male Wistar rats; conditions: male, Wistar, rat, po, 2.5 mg/kg
# Description: 5(S)-CPT (2.5 mg/kg) and 5(RS)-CPT (5 mg/kg, including 2.5 mg/kg of 5(S)-CPT in the mixture) were been administered to male Wistar Rats to evaluate oral pharmacokinetics.
# Male Wistar rats, 6-8 weeks of age and weighing between 205 and 218 g were divided into groups of four rats. The oral pharmacokinetics test was carried out in overnight fasted condition and intravenous pharmacokinetics was carried out in fed condition. The test drugs were administered as a solution by oral gavage or lateral tail vein injection. Sparse blood samples of about 250 microliters were collected from retro-orbital plexus at designated time points into microcentrifuge tubes containing 25 microliters of EDTA. Plasma was separated by centrifuging blood at 12,800 rpm for 2 min and refrigerated until analysis.
# Samples were tested for the presence of the test drug as follows. An aliquot of 100 μL plasma (stored at 8° C.) was precipitated with 400 μL of cold methanol for the estimation of total (lactone+carboxylate). […] Concentrations of the test drug were calculated from the linearity plotted by spiking known concentrations of the test drug in blank rat plasma. The pharmacokinetics of the test drug was calculated using non-compartmental analysis.
# [1] = Storage stability of powder composition and capsules (HPLC impurities, assay); type: physicochemical; conditions: Table 13; E* (S-isomer)
# Description: Samples are analyzed by HPLC using a Chiralcel OD-H 250×4.6 mm column with a 5 μm particle size, at a wavelength of 257 nm using a variable wavelength UV detector, and a mobile phase comprising buffer (0.01 M KH2PO4; pH 3.0±0.1): acetonitrile (68:32% v/v), flow rate 1 ml/minute.
# For the determination of the R-isomer impurity in the compositions, conditions essentially similar to the ones described above are used. The mobile phase comprises buffer (pH 3.0±0.1): acetonitrile (76:24% v/v).
# For impurities other than the R-isomer the HPLC analysis comprises a Waters HPLC system equipped with a variable wavelength UV detector using symmetry C18, 250 column with a 5 μm particle size, at a wavelength of 257 nm, column temperature of 40° C. The mobile phase comprises
# The capsules of Example 9B were charged for stability for about 3 months at different temperature conditions such as 2-8° C., 25° C. and the samples were analyzed by an HPLC procedure described above.
# The powder composition of Example 13 was filled in amber coloured glass vials and sealed. Both initial sample and samples exposed at 25° C./60% RH (relative humidity), 30° C./65% RH, 40° C./75% RH for period of 3 days were analyzed for impurities by using HPLC as per the process described above.
# The capsules have been exposed at 25° C./60% RH, 30° C./65% RH and 40° C./75% RH for a period of 3 months and data has been tabulated in Table 13.
# The capsules packed in HDPE containers were exposed to different stability conditions such as 40° C./75% RH, 30° C./65% RH, 25° C./60% RH, 2-8° C. for about 6-12 months.
# [2] = tested on: 34 human cancer cell lines; assay: In vitro cell growth assay, Sulphorhodamine B (SRB); type: cell-based; conditions: 48 h exposure
# Description: Cell proliferation was evaluated by Sulphorhodamine B (SRB) assay where the amount of dye bound to the cells after staining gives a measure of cell growth. Refer to: JNCI, vol 83, No. 11, Jun. 5, 1991, which is incorporated herein by reference.
# Briefly, cells (34 human cancer cell lines represented by bladder, breast, CNS, colon, epidermoid, lung, ovarian, melanoma, prostate, renal and uterine cancers) were seeded on a 96-well cell culture plates at a concentration of 10,000 cells per well and incubated at 37 degree C. in a CO2 incubator. Twenty-four hours later, cells were treated with different concentrations of […] dissolved in DMSO to a final concentration of 0.05% in the culture medium and exposed for 48 h. Cells were fixed by adding ice-cold 50% trichloroacetic acid (TCA) and incubating for 1 h at 4° C. The plates were washed with distilled water, air dried and stained with SRB solution (0.4% wt/vol in 1% Acetic acid) for 10 min at room temperature. Unbound SRB was removed by washing thoroughly with 1% acetic acid and the plates were air-dried. The bound SRB stain was solubilized with 10 mM Tris buffer, and the optical densities were read on a spectrophotometric plate reader at a single wavelength of 515 nm. […] From the optical densities the percentage growths were calculated using the following formulae: […]
# [3] = Solution stability in different alkaline solutions (HPLC impurities); type: physicochemical; design: C = Dimer impurity: unit not given beside the values
# [4] = Arginine neutralized, 24 hours RT
# [5] = Meglumine neutralized, 24 hours RT
smiles,measurement,setting,value
"CC[C@@]1(O)C(=O)OCc2c1cc1n(c2=O)[C@@H](OCCO)c2cc3ccccc3nc2-1 [DRF-(5S,20S)-1042, 5(S)-(2′-hydroxyethoxy)-20(S)-camptothecin]",AUC,in vivo,1.21 µM·h
same,"A = DRF (5R,20S)-1042",[1],1.11 % Peak Area
same,B = Decarboxylated impurity,[1],0.02 % Peak Area
same,C = Dimer impurity,[1],0.35 % Peak Area
same,"D = Total impurities excluding DRF (5R,20S)-1042",[1],0.96 % Peak Area
same,GI50,[2],5 µM
same,"A = DRF (5R,20S)-1042","[3]; Arginine as is, 24 hours RT",5.22
same,B = Decarboxylated impurity,"[3]; Arginine as is, 24 hours RT",0.19
same,C = Dimer impurity,"[3]; Arginine as is, 24 hours RT",0.95
same,"D = Total impurities excluding DRF (5R,20S)-1042","[3]; Arginine as is, 24 hours RT",3.23
same,"A = DRF (5R,20S)-1042","[3]; Arginine as is, Initial",3.45
same,B = Decarboxylated impurity,"[3]; Arginine as is, Initial",0.06
same,C = Dimer impurity,"[3]; Arginine as is, Initial",0.88
same,"D = Total impurities excluding DRF (5R,20S)-1042","[3]; Arginine as is, Initial",2.50
same,"A = DRF (5R,20S)-1042",[3]; [4],3.26
same,B = Decarboxylated impurity,[3]; [4],0.18
same,C = Dimer impurity,[3]; [4],0.93
same,"D = Total impurities excluding DRF (5R,20S)-1042",[3]; [4],3.11
same,"A = DRF (5R,20S)-1042","[3]; Arginine neutralized, Initial",3.38
same,B = Decarboxylated impurity,"[3]; Arginine neutralized, Initial",0.04
same,C = Dimer impurity,"[3]; Arginine neutralized, Initial",0.9
same,"D = Total impurities excluding DRF (5R,20S)-1042","[3]; Arginine neutralized, Initial",2.64
same,"A = DRF (5R,20S)-1042","[3]; Meglumine as is, 24 hours RT",2.30
same,B = Decarboxylated impurity,"[3]; Meglumine as is, 24 hours RT",0.33
same,C = Dimer impurity,"[3]; Meglumine as is, 24 hours RT",7.17*
same,"D = Total impurities excluding DRF (5R,20S)-1042","[3]; Meglumine as is, 24 hours RT",11.1
same,"A = DRF (5R,20S)-1042","[3]; Meglumine as is, Initial",2.77
same,B = Decarboxylated impurity,"[3]; Meglumine as is, Initial",0.21
same,C = Dimer impurity,"[3]; Meglumine as is, Initial",12.04
same,"D = Total impurities excluding DRF (5R,20S)-1042","[3]; Meglumine as is, Initial",21.15
same,"A = DRF (5R,20S)-1042",[3]; [5],2.57
same,B = Decarboxylated impurity,[3]; [5],0.33
same,C = Dimer impurity,[3]; [5],1.47
same,"D = Total impurities excluding DRF (5R,20S)-1042",[3]; [5],5.02
same,"A = DRF (5R,20S)-1042","[3]; Meglumine neutralized, Initial",1.05
same,B = Decarboxylated impurity,"[3]; Meglumine neutralized, Initial",0.03
same,C = Dimer impurity,"[3]; Meglumine neutralized, Initial",0.54
same,"D = Total impurities excluding DRF (5R,20S)-1042","[3]; Meglumine neutralized, Initial",1.49
same,"A = DRF (5R,20S)-1042","[3]; NaOH as is, 24 hours RT",101.79
same,B = Decarboxylated impurity,"[3]; NaOH as is, 24 hours RT",0.02
same,C = Dimer impurity,"[3]; NaOH as is, 24 hours RT",0.48
same,"D = Total impurities excluding DRF (5R,20S)-1042","[3]; NaOH as is, 24 hours RT",1.95
same,"A = DRF (5R,20S)-1042","[3]; NaOH as is, Initial",75.40
same,B = Decarboxylated impurity,"[3]; NaOH as is, Initial",0.02
same,C = Dimer impurity,"[3]; NaOH as is, Initial",0.35
same,"D = Total impurities excluding DRF (5R,20S)-1042","[3]; NaOH as is, Initial",1.81
same,"A = DRF (5R,20S)-1042","[3]; NaOH neutralized, 24 hours RT",56.26
same,B = Decarboxylated impurity,"[3]; NaOH neutralized, 24 hours RT",0.02
same,C = Dimer impurity,"[3]; NaOH neutralized, 24 hours RT",0.37
same,"D = Total impurities excluding DRF (5R,20S)-1042","[3]; NaOH neutralized, 24 hours RT",2.22
same,"A = DRF (5R,20S)-1042","[3]; NaOH neutralized, Initial",56.75
same,B = Decarboxylated impurity,"[3]; NaOH neutralized, Initial",0.02
same,C = Dimer impurity,"[3]; NaOH neutralized, Initial",0.38
same,"D = Total impurities excluding DRF (5R,20S)-1042","[3]; NaOH neutralized, Initial",1.81
